Results taken from patent US20260116910A1, “POLYCYCLIC COMPOUNDS AND METHODS THEREOF” (HEPAITECH (BEIJING) BIOPHARMA TECHNOLOGY CO., LTD., priority 2021, published 2026).
Blank lines part the entries; values can stand above or below the compound they belong to.

Legend:
human FXR (NR1H4) = target: T1, human FXR (NR1H4) (Homo sapiens, UniProt Q96RI1); test: Human FXR (NR1H4) agonist assessment, FXRE-NanoLuc reporter in HEK293T cells; type: cell-based; conditions: FXR activation, HEK293T FXRE-NanoLuc reporter, 24 hr; for EC50: read-out: EC50
T1 sequence (Q96RI1 1-476 isoform Q96RI1-1): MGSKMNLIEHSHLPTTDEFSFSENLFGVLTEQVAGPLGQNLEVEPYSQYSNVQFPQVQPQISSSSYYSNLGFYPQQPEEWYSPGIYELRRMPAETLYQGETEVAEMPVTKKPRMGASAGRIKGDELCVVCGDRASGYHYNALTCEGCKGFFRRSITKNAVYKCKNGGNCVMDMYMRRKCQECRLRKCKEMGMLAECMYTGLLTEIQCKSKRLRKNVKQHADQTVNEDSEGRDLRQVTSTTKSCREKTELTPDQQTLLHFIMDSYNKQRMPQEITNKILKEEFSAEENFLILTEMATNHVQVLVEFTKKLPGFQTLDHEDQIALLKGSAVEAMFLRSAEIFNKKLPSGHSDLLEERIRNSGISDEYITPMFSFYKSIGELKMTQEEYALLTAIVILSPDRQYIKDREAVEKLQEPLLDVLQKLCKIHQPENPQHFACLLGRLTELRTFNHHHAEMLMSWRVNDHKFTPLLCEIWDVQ
Experimental: As those skilled in the art appreciate, various technologies are available for assessment of FXR activation in accordance with the present disclosure. […] Human FXR (NR1H4) agonist assessment (see, e.g., Yu et al. eLife 2019; 8: e48431): HEK293T cells stably expressing human FXR and containing FXR response element (FXRE)-NanoLuc reporter were cultured in DMEM medium supplemented with 10% FBS and 1% PS, at 37° C. in a humidified atmosphere with 5% CO2. Cells were detached by centrifuging (1000 rpm, 3 min). The pellet was re-suspended in medium, and cell density was adjusted to about 1×10^6 cells/mL. 100 μL suspension was seeded to each well of a white-walled, clear-bottom 96-well microplates (cell plate). Cells in microplates were cultured overnight.
In the following day, cells were grown to higher than 95% density in each well. Culture medium was replaced, and compounds were added to the wells. 0.01% DMSO (v/v) served as negative control. Plates were incubated at 37° C. in 5% CO2 for 24 hr.
In the following day, a 10 μL aliquot of cell culture medium was removed from each well and combined with 40 μL culture medium plus […] assay buffer (containing 20 mM of the luciferase substrate coelenterazine). After 5 min incubation, luminescence was measured using an EnVision plate reader (PerkinElmer).
In some embodiments, gradient diluted solutions of several concentrations were used to treat cells and corresponding responses were used to fit sigmoid function and to derive EC50 in Origin.

MRGPRX4 = MRGPRX4 (Homo sapiens, UniProt Q96LA9); test: MRGPRX4 activation, Fluo-8 Ca2+ FLIPR assay in HEK293T cells stably expressing MRGPRX4; type: cell-based
Chain of MRGPRX4 (Q96LA9 whole entry): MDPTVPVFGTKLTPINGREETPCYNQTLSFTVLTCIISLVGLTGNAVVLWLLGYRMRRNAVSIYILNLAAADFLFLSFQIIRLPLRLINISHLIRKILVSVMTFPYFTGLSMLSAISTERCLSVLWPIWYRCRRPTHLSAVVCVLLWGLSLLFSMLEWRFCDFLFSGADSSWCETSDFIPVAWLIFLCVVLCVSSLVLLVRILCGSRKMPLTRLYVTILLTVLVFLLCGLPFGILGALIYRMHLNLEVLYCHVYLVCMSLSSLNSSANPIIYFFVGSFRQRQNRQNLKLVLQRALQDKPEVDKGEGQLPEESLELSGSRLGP
Experimental: In some embodiments, cells were cultured in poly-D-Lys coated blacked walled, clear-bottom 96-well microplates. HEK293T cells stably expressing MRGPRX4 were cultured in DMEM medium supplemented with 10% FBS and 1% PS, at 37° C. in a humidified atmosphere with 5% CO2. Cells were detached by centrifuging (1000 rpm, 3 min). The pellet was re-suspended in medium, and cell density was adjusted to about 1×10^6 cells/mL. 100 μL suspension was seeded to each well of a microplates (cell plate). Cells in the microplates were cultured overnight. In the following day, cells were grown to higher than 95% density in each well.
Ca^2+ fluorescent dye loading: Fluo-8 AM (Screen Quest Fluo-8 AM Calcium Assay Kit, AAT Bioquest, cat. #: 21083) was diluted in HHBS buffer and adjusted to 2 μM (dye buffer). Medium in each well was changed into 50 μL dye buffer carefully. After incubation for 40-60 min under room temperature, the dye buffer was changed into 50 μL HHBS buffer.
The concentration of solution should be determined according to the protocol settings and experimental needs (e.g., Log[M]=−4, −5, −6, −7, −8, and −9). Prepare 2× serial dilution series of compounds (at least 75 μL per well).
A fluorescent signal baseline was measured using FLIPR®Tetra for 30 s. Then 50 μL of the chemical solution would be added to the cell plate. The fluorescent signal would be measured for another 150 s.
Activity of each compound was calculated by the fluorescence change (dF/F0). Curves were fitted to obtain EC50 values. In some embodiments, at least 3 repeats were performed to obtain the average values. For assessment of a compound, gradient diluted solutions of different concentrations were used to treat cells and corresponding responses were used to fit sigmoid function and to derive EC50 in Origin. In some embodiments, assessed concentrations were or included about 10^−4, 10^−4.5, 10^−5, 10^−5.5, 10^−6, 10^−6.5, 10^−7, 10^−8, and/or 10^−9 M; for example, in many instances, assessed concentrations included about 10^−5, 10^−6, 10^−7 and 10^−8 M. In some embodiments, assessed concentrations were about 10^−4, 10^−4.5, 10^−5, 10^−5.5, 10^−6, 10^−7, 10^−8, and 10^−9 M. In some embodiments, assessed concentrations were about 10^−4, 10^−5, 10^−6, 10^−7, 10^−8, and 10^−9 M. In some embodiments, assessed concentrations were about 10^−4, 10^−4.5, 10^−5, 10^−5.5, 10^−6, and 10^−7 M. In some embodiments, assessed concentrations were about 2000000, 1000000, 500000, 250000, 125000, 62500, 31250, 15625, 7813, 3906 nM. […] In some embodiments, assessed concentrations were about 30000, 10000, 3333, 1111, 370, 123, 41, 14, 4.6, 1.5 nM.

SMILES: CC[C@H]1[C@@H](O)[C@@H]2[C@H](CC[C@]3(C)[C@@H]([C@H](C)CCNC(=O)NS(=O)(=O)c4ccc(C(F)(F)F)cc4)CC[C@@H]23)[C@@]2(C)CCCC[C@@H]12 [5-19]
Efficacy (maximum measured induction of NanoLuc, normalized to CDCA set as 100%) (human FXR (NR1H4)): C (100%<efficacy <=300%)
EC50 (human FXR (NR1H4)): < 1000 nM

Activation (%) (MRGPRX4; E3-8-1, 5 nM, n = 1): 1.93%
Activation (%) (MRGPRX4; E3-8-1, 5 nM, n = 2): 0.08%
Activation (%) (MRGPRX4; E3-8-1, 15 nM, n = 1): 1.01%
Activation (%) (MRGPRX4; E3-8-1, 15 nM, n = 2): 0.39%
Activation (%) (MRGPRX4; E3-8-1, 46 nM, n = 1): 2.24%
Activation (%) (MRGPRX4; E3-8-1, 46 nM, n = 2): 0.70%
Activation (%) (MRGPRX4; E3-8-1, 412 nM, n = 1): 3.48%
Activation (%) (MRGPRX4; E3-8-1, 412 nM, n = 2): 0.70%
Activation (%) (MRGPRX4; E3-8-1, 1235 nM, n = 1): 14.9%
Activation (%) (MRGPRX4; E3-8-1, 1235 nM, n = 2): 6.58%
Activation (%) (MRGPRX4; E3-8-1, 3704 nM, n = 1): 37.5%
Activation (%) (MRGPRX4; E3-8-1, 3704 nM, n = 2): 30.1%
Activation (%) (MRGPRX4; E3-8-1, 11111 nM, n = 1): 73.8%
Activation (%) (MRGPRX4; E3-8-1, 11111 nM, n = 2): 56.4%
Activation (%) (MRGPRX4; E3-8-1, 33333 nM, n = 1): 95.1%
Activation (%) (MRGPRX4; E3-8-1, 33333 nM, n = 2): 98.5%
Activation (%) (MRGPRX4; E3-8-1, 100000 nM, n = 1): 96.4%
Activation (%) (MRGPRX4; E3-8-1, 100000 nM, n = 2): 107.2%
SMILES: C[C@H](CCC(=O)O)[C@H]1CC[C@H]2[C@@H]3CC[C@@H]4C[C@H](O)CC[C@]4(C)[C@H]3C[C@H](O)[C@]12C [DCA, deoxycholic acid, reference compound]

SMILES: CC[C@H]1[C@@H](O)[C@@H]2[C@H](CC[C@]3(C)[C@@H]([C@H](C)CCN)CC[C@@H]23)[C@@]2(C)CCC(F)(F)C[C@@H]12 [11-1]
Efficacy (maximum measured induction of NanoLuc, normalized to CDCA set as 100%) (human FXR (NR1H4)): C (100%<efficacy <=300%)
EC50 (human FXR (NR1H4)): > 10000 nM

SMILES: CC[C@H]1[C@@H](O)[C@@H]2[C@H](CC[C@]3(C)[C@@H]([C@H](C)CCNC(=N)NS(=O)(=O)c4cccs4)CC[C@@H]23)[C@@]2(C)CCCC[C@@H]12 [17-2]
Efficacy (maximum measured induction of NanoLuc, normalized to CDCA set as 100%) (human FXR (NR1H4)): B (300%<efficacy <=400%)
EC50 (human FXR (NR1H4)): < 1000 nM

SMILES: CC[C@H]1[C@@H](O)[C@@H]2[C@H](CC[C@]3(C)[C@@H]([C@H](C)CCOC(=O)NS(=O)(=O)c4ccc(C(C)(C)CF)cc4)CC[C@@H]23)[C@@]2(C)CCCC[C@@H]12 [19-3]
Efficacy (maximum measured induction of NanoLuc, normalized to CDCA set as 100%) (human FXR (NR1H4)): A (efficacy >400%)
EC50 (human FXR (NR1H4)): < 1000 nM
